# Measurements from patent US8933039B2 (NPS Pharmaceuticals, Inc., priority 1995, dated 2015).
# Non-standard residues stand in square brackets, D forms with d. Residues, ends and D or L forms follow the SMILES beside them. Phg = N[C@H](C(=O)O)c1ccccc1; Tle = CC(C)(C)[C@H](N)C(=O)O; Nva = CCC[C@H](N)C(=O)O; Aib = CC(C)(N)C(=O)O; βAla = NCCC(=O)O
# System: CD1 mice
# Experiment: Intestinotrophic activity assessment: small bowel weight in mice
# Type: in vivo
# Conditions: mice, as Example 4; relative to native rat GLP-2(1-33)
# In short: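 Female CD1 mice, 6 weeks old (n=3-4/group), given 2.5 μg peptide s.c. b.i.d. in PBS; sacrificed 10 or 14 days later after ≥20 h fast. Small bowel (pylorus to cecum) weighed; percent change versus vehicle mice, also expressed relative to rat GLP-2(1-33) set as 100%.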
row,Compound,% Activity (small bowel inducing activity relative to native rat GLP-2(1-33) = 100%) [%]
1,CCC[C@H](NC(=O)[C@@H](N)Cc1c[nH]cn1)C(=O)N[C@@H](CC(=O)O)C(=O)NCC(=O)N[C@@H](CO)C(=O)N[C@@H](Cc1ccccc1)C(=O)N[C@@H](CO)C(=O)N[C@@H](CC(=O)O)C(=O)N[C@@H](CCC(=O)O)C(=O)N[C@@H](CCSC)C(=O)N[C@@H](CC(N)=O)C(=O)N[C@H](C(=O)N[C@H](C(=O)N[C@@H](CC(C)C)C(=O)N[C@@H](CC(=O)O)C(=O)N[C@@H](CC(N)=O)C(=O)N[C@@H](CC(C)C)C(=O)N[C@@H](C)C(=O)N[C@@H](C)C(=O)N[C@@H](CCCNC(=N)N)C(=O)N[C@@H](CC(=O)O)C(=O)N[C@@H](Cc1ccccc1)C(=O)N[C@H](C(=O)N[C@@H](CC(N)=O)C(=O)N[C@@H](Cc1c[nH]c2ccccc12)C(=O)N[C@@H](CC(C)C)C(=O)N[C@H](C(=O)N[C@@H](CCC(N)=O)C(=O)N[C@H](C(=O)N[C@@H](CCCCN)C(=O)N[C@H](C(=O)N[C@H](C(=O)N[C@@H](CC(=O)O)C(=O)O)[C@@H](C)O)[C@@H](C)CC)[C@@H](C)O)[C@@H](C)CC)[C@@H](C)CC)[C@@H](C)CC)[C@@H](C)O [[Nval2]hGLP-2(1-33)] (H-H[Nva]DGSFSDEMNTILDNLAARDFINWLIQTKITD-OH),111

# Biological target: DPP-IV (Homo sapiens, UniProt P27487)
# Experiment: Assay for resistance to dipeptidyl peptidase IV (RP-HPLC of cleavage product)
# Conditions: human, isolated human placental DPP-IV (dipeptidyl peptidase IV), pH 7.4, % Cleaved by DPP-IV, as Example 3: human placental DPP-IV, 37° C., PBS pH 7.4
# Experimental: The mixture was incubated at 37° C. in a circulating water bath for 24 hours. The incubation was quenched by the addition of 50 μl of a solution of diprotin A prepared at a concentration of 4 mg/ml in PBS. Each peptide was tested in duplicate.
# Each sample was analyzed by reverse-phase (RP) HPLC as follows: 90 μl of the quenched incubation mixture was injected onto a Rainin Dynamax 300 Å, C18, 5 micron, 4.6×250 millimeter column. The samples were eluted with 0.1% trifluoroacetic acid (TFA) in water modified with 0.1% acetonitrile using a linear gradient and a flow rate of 1 ml per minute. Sample components were detected at 214 nanometers (nm). The extent of cleavage was measured by relative integration of the peak corresponding to the cleavage product compared to that of the remaining undigested parent peptide.
# Sequence of DPP-IV (P27487 whole entry): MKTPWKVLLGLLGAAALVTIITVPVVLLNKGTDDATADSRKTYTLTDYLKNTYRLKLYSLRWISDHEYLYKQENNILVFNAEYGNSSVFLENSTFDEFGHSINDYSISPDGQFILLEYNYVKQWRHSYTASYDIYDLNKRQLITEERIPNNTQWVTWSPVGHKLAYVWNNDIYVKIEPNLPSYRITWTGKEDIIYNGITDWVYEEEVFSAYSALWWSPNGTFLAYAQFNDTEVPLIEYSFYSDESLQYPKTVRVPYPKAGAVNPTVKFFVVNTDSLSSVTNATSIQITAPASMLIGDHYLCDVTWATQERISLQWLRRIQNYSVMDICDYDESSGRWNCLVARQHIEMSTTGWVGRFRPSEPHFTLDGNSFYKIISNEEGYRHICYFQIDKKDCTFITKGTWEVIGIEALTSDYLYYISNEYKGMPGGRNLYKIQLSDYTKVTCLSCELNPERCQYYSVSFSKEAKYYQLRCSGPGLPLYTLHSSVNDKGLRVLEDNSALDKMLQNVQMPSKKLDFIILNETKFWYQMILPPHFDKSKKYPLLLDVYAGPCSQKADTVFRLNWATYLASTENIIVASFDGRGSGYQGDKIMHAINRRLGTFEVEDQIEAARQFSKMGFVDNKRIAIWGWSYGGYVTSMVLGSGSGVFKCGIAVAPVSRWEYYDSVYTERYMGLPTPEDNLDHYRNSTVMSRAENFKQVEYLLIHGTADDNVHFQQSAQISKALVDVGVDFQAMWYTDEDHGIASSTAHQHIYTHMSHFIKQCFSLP
row,Compound,"metabolised at 24 h, 0.19 mg/ml [%]"
1,CCC[C@H](NC(=O)[C@@H](N)Cc1c[nH]cn1)C(=O)N[C@@H](CC(=O)O)C(=O)NCC(=O)N[C@@H](CO)C(=O)N[C@@H](Cc1ccccc1)C(=O)N[C@@H](CO)C(=O)N[C@@H](CC(=O)O)C(=O)N[C@@H](CCC(=O)O)C(=O)N[C@@H](CCSC)C(=O)N[C@@H](CC(N)=O)C(=O)N[C@H](C(=O)N[C@H](C(=O)N[C@@H](CC(C)C)C(=O)N[C@@H](CC(=O)O)C(=O)N[C@@H](CC(N)=O)C(=O)N[C@@H](CC(C)C)C(=O)N[C@@H](C)C(=O)N[C@@H](C)C(=O)N[C@@H](CCCNC(=N)N)C(=O)N[C@@H](CC(=O)O)C(=O)N[C@@H](Cc1ccccc1)C(=O)N[C@H](C(=O)N[C@@H](CC(N)=O)C(=O)N[C@@H](Cc1c[nH]c2ccccc12)C(=O)N[C@@H](CC(C)C)C(=O)N[C@H](C(=O)N[C@@H](CCC(N)=O)C(=O)N[C@H](C(=O)N[C@@H](CCCCN)C(=O)N[C@H](C(=O)N[C@H](C(=O)N[C@@H](CC(=O)O)C(=O)O)[C@@H](C)O)[C@@H](C)CC)[C@@H](C)O)[C@@H](C)CC)[C@@H](C)CC)[C@@H](C)CC)[C@@H](C)O [[Nval2]hGLP-2(1-33)] (H-H[Nva]DGSFSDEMNTILDNLAARDFINWLIQTKITD-OH),0

# System: dipeptidyl peptidase IV (DPP-IV)
# Experiment: human placental DPP-IV (Calbiochem), 0.125 mU, added to test peptide in PBS at pH 7.4
# Conditions: 37° C., up to 24 hours
Compound,not cleaved [% cleaved by DPP-IV],cleaved bond
"[Ala1,Gly2]hGLP-2(1-33) (H-AGDGSFSDEMNTILDNLAARDFINWLIQTKITD-OH)",0,–
[Asn2]hGLP-2(1-33) (H-HNDGSFSDEMNTILDNLAARDFINWLIQTKITD-OH),0,–
[Thr^19]hGLP-2(1-33) (H-HADGSFSDEMNTILDNLATRDFINWLIQTKITD-OH),–,"Ala2-Asp3, 24 hours"
[Met2]hGLP-2(1-33) (H-HMDGSFSDEMNTILDNLAARDFINWLIQTKITD-OH),0,–
[Lys2]hGLP-2(1-33) (H-HKDGSFSDEMNTILDNLAARDFINWLIQTKITD-OH),0,–
[Gln2]hGLP-2(1-33) (H-HQDGSFSDEMNTILDNLAARDFINWLIQTKITD-OH),0,–
[Glu2]hGLP-2(1-33) (H-HEDGSFSDEMNTILDNLAARDFINWLIQTKITD-OH),0,–
[PhGly2]hGLP-2(1-33) (H-H[Phg]DGSFSDEMNTILDNLAARDFINWLIQTKITD-OH; SMILES CC[C@H](C)[C@H](NC(=O)[C@H](Cc1ccccc1)NC(=O)[C@H](CC(=O)O)NC(=O)[C@H](CCCNC(=N)N)NC(=O)[C@H](C)NC(=O)[C@H](C)NC(=O)[C@H](CC(C)C)NC(=O)[C@H](CC(N)=O)NC(=O)[C@H](CC(=O)O)NC(=O)[C@H](CC(C)C)NC(=O)[C@@H](NC(=O)[C@@H](NC(=O)[C@H](CC(N)=O)NC(=O)[C@H](CCSC)NC(=O)[C@H](CCC(=O)O)NC(=O)[C@H](CC(=O)O)NC(=O)[C@H](CO)NC(=O)[C@H](Cc1ccccc1)NC(=O)[C@H](CO)NC(=O)CNC(=O)[C@H](CC(=O)O)NC(=O)[C@@H](NC(=O)[C@@H](N)Cc1c[nH]cn1)c1ccccc1)[C@@H](C)O)[C@@H](C)CC)C(=O)N[C@@H](CC(N)=O)C(=O)N[C@@H](Cc1c[nH]c2ccccc12)C(=O)N[C@@H](CC(C)C)C(=O)N[C@H](C(=O)N[C@@H](CCC(N)=O)C(=O)N[C@H](C(=O)N[C@@H](CCCCN)C(=O)N[C@H](C(=O)N[C@H](C(=O)N[C@@H](CC(=O)O)C(=O)O)[C@@H](C)O)[C@@H](C)CC)[C@@H](C)O)[C@@H](C)CC),0,–
"[Gly2, Arg34]hGLP-2(1-34)",0,–
[Asp1]hGLP-2(1-33) (H-DADGSFSDEMNTILDNLAARDFINWLIQTKITD-OH),0,–
[Val2]GLP-2(1-33),0,–
[Asp2]hGLP-2(1-33) (H-HDDGSFSDEMNTILDNLAARDFINWLIQTKITD-OH),0,–
"[Gly2,Ala5]hGLP-2(1-33) (H-HGDGAFSDEMNTILDNLAARDFINWLIQTKITD-OH)",0,–
[Ile2]hGLP-2(1-33) (H-HIDGSFSDEMNTILDNLAARDFINWLIQTKITD-OH),0,–
"[Gly2,Ala24]hGLP-2(1-33) (H-HGDGSFSDEMNTILDNLAARDFIAWLIQTKITD-OH)",0,–
[Pro3]hGLP-2(1-33) (H-HAPGSFSDEMNTILDNLAARDFINWLIQTKITD-OH),0,–

Compound,not cleaved [% cleaved by DPP-IV],cleaved bond
[Arg-l]ratGLP-2(-1-33) (H-RHADGSFSDEMNTILDNLATRDFINWLIQTKITD-OH),0,–
[D-Ala2]hGLP-2(1-33),0,–
[Gly2]hGLP-2(1-33),0,–
"[Gly2,Ala4]hGLP-2(1-33) (H-HGDASFSDEMNTILDNLAARDFINWLIQTKITD-OH)",0,–
[bAla2]hGLP-2(1-33) (H-H[βAla]DGSFSDEMNTILDNLAARDFINWLIQTKITD-OH; SMILES CC[C@H](C)[C@H](NC(=O)[C@H](Cc1ccccc1)NC(=O)[C@H](CC(=O)O)NC(=O)[C@H](CCCNC(=N)N)NC(=O)[C@H](C)NC(=O)[C@H](C)NC(=O)[C@H](CC(C)C)NC(=O)[C@H](CC(N)=O)NC(=O)[C@H](CC(=O)O)NC(=O)[C@H](CC(C)C)NC(=O)[C@@H](NC(=O)[C@@H](NC(=O)[C@H](CC(N)=O)NC(=O)[C@H](CCSC)NC(=O)[C@H](CCC(=O)O)NC(=O)[C@H](CC(=O)O)NC(=O)[C@H](CO)NC(=O)[C@H](Cc1ccccc1)NC(=O)[C@H](CO)NC(=O)CNC(=O)[C@H](CC(=O)O)NC(=O)CCNC(=O)[C@@H](N)Cc1c[nH]cn1)[C@@H](C)O)[C@@H](C)CC)C(=O)N[C@@H](CC(N)=O)C(=O)N[C@@H](Cc1c[nH]c2ccccc12)C(=O)N[C@@H](CC(C)C)C(=O)N[C@H](C(=O)N[C@@H](CCC(N)=O)C(=O)N[C@H](C(=O)N[C@@H](CCCCN)C(=O)N[C@H](C(=O)N[C@H](C(=O)N[C@@H](CC(=O)O)C(=O)O)[C@@H](C)O)[C@@H](C)CC)[C@@H](C)O)[C@@H](C)CC),0,–
[His2]hGLP-2(1-33) (H-HHDGSFSDEMNTILDNLAARDFINWLIQTKITD-OH),0,–
[Aib2]hGLP-2(1-33) (H-H[Aib]DGSFSDEMNTILDNLAARDFINWLIQTKITD-OH; SMILES CC[C@H](C)[C@H](NC(=O)[C@H](Cc1ccccc1)NC(=O)[C@H](CC(=O)O)NC(=O)[C@H](CCCNC(=N)N)NC(=O)[C@H](C)NC(=O)[C@H](C)NC(=O)[C@H](CC(C)C)NC(=O)[C@H](CC(N)=O)NC(=O)[C@H](CC(=O)O)NC(=O)[C@H](CC(C)C)NC(=O)[C@@H](NC(=O)[C@@H](NC(=O)[C@H](CC(N)=O)NC(=O)[C@H](CCSC)NC(=O)[C@H](CCC(=O)O)NC(=O)[C@H](CC(=O)O)NC(=O)[C@H](CO)NC(=O)[C@H](Cc1ccccc1)NC(=O)[C@H](CO)NC(=O)CNC(=O)[C@H](CC(=O)O)NC(=O)C(C)(C)NC(=O)[C@@H](N)Cc1c[nH]cn1)[C@@H](C)O)[C@@H](C)CC)C(=O)N[C@@H](CC(N)=O)C(=O)N[C@@H](Cc1c[nH]c2ccccc12)C(=O)N[C@@H](CC(C)C)C(=O)N[C@H](C(=O)N[C@@H](CCC(N)=O)C(=O)N[C@H](C(=O)N[C@@H](CCCCN)C(=O)N[C@H](C(=O)N[C@H](C(=O)N[C@@H](CC(=O)O)C(=O)O)[C@@H](C)O)[C@@H](C)CC)[C@@H](C)O)[C@@H](C)CC),0,–
[Ser2]hGLP-2(1-33) (H-HSDGSFSDEMNTILDNLAARDFINWLIQTKITD-OH),0,–
"[Tyr1, Gly2]hGLP-2(1-33) (H-YGDGSFSDEMNTILDNLAARDFINWLIQTKITD-OH)",0,–
[Pro1]hGLP-2(1-33) (H-PADGSFSDEMNTILDNLAARDFINWLIQTKITD-OH),0,–
"[Gly2,Ala3]hGLP-2(1-33) (H-HGAGSFSDEMNTILDNLAARDFINWLIQTKITD-OH)",0,–
[Phe2]hGLP-2(1-33) (H-HFDGSFSDEMNTILDNLAARDFINWLIQTKITD-OH),0,–
"[Gly2, Tyr34]hGLP-2(1-34)",0,–
[Thr2]hGLP-2(1-33) (H-HTDGSFSDEMNTILDNLAARDFINWLIQTKITD-OH),0,–
[tBuGly2]hGLP-2 (H-H[Tle]DGSFSDEMNTILDNLAARDFINWLIQTKITD-OH; SMILES CC[C@H](C)[C@H](NC(=O)[C@H](Cc1ccccc1)NC(=O)[C@H](CC(=O)O)NC(=O)[C@H](CCCNC(=N)N)NC(=O)[C@H](C)NC(=O)[C@H](C)NC(=O)[C@H](CC(C)C)NC(=O)[C@H](CC(N)=O)NC(=O)[C@H](CC(=O)O)NC(=O)[C@H](CC(C)C)NC(=O)[C@@H](NC(=O)[C@@H](NC(=O)[C@H](CC(N)=O)NC(=O)[C@H](CCSC)NC(=O)[C@H](CCC(=O)O)NC(=O)[C@H](CC(=O)O)NC(=O)[C@H](CO)NC(=O)[C@H](Cc1ccccc1)NC(=O)[C@H](CO)NC(=O)CNC(=O)[C@H](CC(=O)O)NC(=O)[C@@H](NC(=O)[C@@H](N)Cc1c[nH]cn1)C(C)(C)C)[C@@H](C)O)[C@@H](C)CC)C(=O)N[C@@H](CC(N)=O)C(=O)N[C@@H](Cc1c[nH]c2ccccc12)C(=O)N[C@@H](CC(C)C)C(=O)N[C@H](C(=O)N[C@@H](CCC(N)=O)C(=O)N[C@H](C(=O)N[C@@H](CCCCN)C(=O)N[C@H](C(=O)N[C@H](C(=O)N[C@@H](CC(=O)O)C(=O)O)[C@@H](C)O)[C@@H](C)CC)[C@@H](C)O)[C@@H](C)CC),0,–
[Tyr2]hGLP-2(1-33) (H-HYDGSFSDEMNTILDNLAARDFINWLIQTKITD-OH),0,–
